Experimental data: ChEMBL document CHEMBL3784933, “Synthesis and antitumor evaluation of trimethoxyanilides based on 4(3H)-quinazolinone scaffolds” (2016)

Columns and labels:
Format in all cases: functional
[1] = Cytotoxicity against human NCI-H322 cells assessed as growth inhibition at 10 uM after 48 hrs by SRB assay; conditions: NCI-H322, 48 h, read-out: GI
[2] = Cytotoxicity against human NCI-ADR-RES cells assessed as growth inhibition at 10 uM after 48 hrs by SRB assay; conditions: read-out: GI
[3] = test system: MCF7; test: Cytotoxicity against human MCF7 cells assessed as growth inhibition at 10 uM after 48 hrs by SRB assay; conditions: MCF7, 48 h, read-out: GI
[4] = test system: ACHN; test: Cytotoxicity against human ACHN cells assessed as growth inhibition at 10 uM after 48 hrs by SRB assay; conditions: read-out: GI
[5] = Cytotoxicity against human SNB19 cells assessed as growth inhibition at 10 uM after 48 hrs by SRB assay; conditions: SNB-19, 48 h, read-out: GI
[6] = Cytotoxicity against human RXF393 cells assessed as growth inhibition at 10 uM after 48 hrs by SRB assay; conditions: RXF 393, 48 h, read-out: GI
[7] = Cytotoxicity against human SF295 cells assessed as growth inhibition at 10 uM after 48 hrs by SRB assay; conditions: SF-295, 48 h, read-out: GI
[8] = test system: SR; test: Cytotoxicity against human SR cells assessed as growth inhibition at 10 uM after 48 hrs by SRB assay; conditions: read-out: GI
[9] = test system: MDA-MB-231; test: Cytotoxicity against human MDA-MB-231 cells assessed as growth inhibition at 10 uM after 48 hrs by SRB assay; conditions: MDA-MB-231, 48 h, read-out: GI
[10] = Cytotoxicity against human SKOV3 cells assessed as growth inhibition at 10 uM after 48 hrs by SRB assay; conditions: SK-OV-3, 48 h, read-out: GI
[11] = Cytotoxicity against human OVCAR3 cells assessed as growth inhibition at 10 uM after 48 hrs by SRB assay; conditions: OVCAR-3, 48 h, read-out: GI
[12] = Cytotoxicity against human SF268 cells assessed as growth inhibition at 10 uM after 48 hrs by SRB assay; conditions: SF-268, 48 h, read-out: GI
[13] = Cytotoxicity against human LOXIMVI cells assessed as growth inhibition at 10 uM after 48 hrs by SRB assay; conditions: LOX IMVI, read-out: GI
[14] = Cytotoxicity against human IGROV1 cells assessed as growth inhibition at 10 uM after 48 hrs by SRB assay; conditions: IGROV-1, 48 h, read-out: GI
[15] = Cytotoxicity against human UACC257 cells assessed as growth inhibition at 10 uM after 48 hrs by SRB assay; conditions: UACC-257, 48 h, read-out: GI
[16] = test system: NCI-H226; test: Cytotoxicity against human NCI-H226 cells assessed as growth inhibition at 10 uM after 48 hrs by SRB assay; conditions: NCI-H226, 48 h, read-out: GI
[17] = test system: NCI-H460; test: Cytotoxicity against human NCI-H460 cells assessed as growth inhibition at 10 uM after 48 hrs by SRB assay; conditions: NCI-H460, 48 h, read-out: GI
[18] = test system: SN12C; test: Cytotoxicity against human SN12C cells assessed as growth inhibition at 10 uM after 48 hrs by SRB assay; conditions: read-out: GI
[19] = test system: A498; test: Cytotoxicity against human A498 cells assessed as growth inhibition at 10 uM after 48 hrs by SRB assay; conditions: A498, 48 h, read-out: GI
[20] = test system: SK-MEL-5; test: Cytotoxicity against human SK-MEL-5 cells assessed as growth inhibition at 10 uM after 48 hrs by SRB assay; conditions: SK-MEL-5, 48 h, read-out: GI
[21] = test system: Malme-3M; test: Cytotoxicity against human MALME-3M cells assessed as growth inhibition at 10 uM after 48 hrs by SRB assay; conditions: read-out: GI
[22] = Cytotoxicity against human PC3 cells assessed as growth inhibition at 10 uM after 48 hrs by SRB assay; conditions: PC-3, 48 h, read-out: GI
[23] = Cytotoxicity against human UO31 cells assessed as growth inhibition at 10 uM after 48 hrs by SRB assay; conditions: UO-31, 48 h, read-out: GI
[24] = Cytotoxicity against human UACC62 cells assessed as growth inhibition at 10 uM after 48 hrs by SRB assay; conditions: UACC-62, 48 h, read-out: GI
[25] = Cytotoxicity against human OVCAR8 cells assessed as growth inhibition at 10 uM after 48 hrs by SRB assay; conditions: OVCAR-8, 48 h, read-out: GI
[26] = Cytotoxicity against human OVCAR4 cells assessed as growth inhibition at 10 uM after 48 hrs by SRB assay; conditions: OVCAR-4, 48 h, read-out: GI
[27] = test system: NCI-H23; test: Cytotoxicity against human NCI-H23 cells assessed as growth inhibition at 10 uM after 48 hrs by SRB assay; conditions: NCI-H23, 48 h, read-out: GI
[28] = test system: U-251; test: Cytotoxicity against human U251 cells assessed as growth inhibition at 10 uM after 48 hrs by SRB assay; conditions: U-251, 48 h, read-out: GI
[29] = Cytotoxicity against human SNB75 cells assessed as growth inhibition at 10 uM after 48 hrs by SRB assay; conditions: SNB-75, 48 h, read-out: GI
[30] = test system: T47D; test: Cytotoxicity against human T47D cells assessed as growth inhibition at 10 uM after 48 hrs by SRB assay; conditions: read-out: GI
[31] = test system: A549; test: Cytotoxicity against human A549 cells assessed as growth inhibition at 10 uM after 48 hrs by SRB assay; conditions: A549, 48 h, read-out: GI
[32] = test system: CCRF-CEM; test: Cytotoxicity against human CCRF-CEM cells assessed as growth inhibition at 10 uM after 48 hrs by SRB assay; conditions: read-out: GI
[33] = Cytotoxicity against human HOP62 cells assessed as growth inhibition at 10 uM after 48 hrs by SRB assay; conditions: HOP-62, 48 h, read-out: GI
[34] = test system: SK-MEL-2; test: Cytotoxicity against human SK-MEL-2 cells assessed as growth inhibition at 10 uM after 48 hrs by SRB assay; conditions: SK-MEL-2, 48 h, read-out: GI
[35] = test system: NCI-H522; test: Cytotoxicity against human NCI-H522 cells assessed as growth inhibition at 10 uM after 48 hrs by SRB assay; conditions: NCI-H522, 48 h, read-out: GI
[36] = Cytotoxicity against human Caki1 cells assessed as growth inhibition at 10 uM after 48 hrs by SRB assay; conditions: CAKI-1, 48 h, read-out: GI
[37] = Cytotoxicity against human HCT116 cells assessed as growth inhibition at 10 uM after 48 hrs by SRB assay; conditions: HCT-116, 48 h, read-out: GI
[38] = test system: MDA-MB-468; test: Cytotoxicity against human MDA-MB-468 cells assessed as growth inhibition at 10 uM after 48 hrs by SRB assay; conditions: MDA-MB-468, 48 h, read-out: GI
[39] = Cytotoxicity against human RPMI8226 cells assessed as growth inhibition at 10 uM after 48 hrs by SRB assay; conditions: RPMI-8226, 48 h, read-out: GI
[40] = Cytotoxicity against human BT549 cells assessed as growth inhibition at 10 uM after 48 hrs by SRB assay; conditions: BT-549, 48 h, read-out: GI
[41] = Cytotoxicity against human DU145 cells assessed as growth inhibition at 10 uM after 48 hrs by SRB assay; conditions: DU-145, 48 h, read-out: GI
[42] = Cytotoxicity against human HOP92 cells assessed as growth inhibition at 10 uM after 48 hrs by SRB assay; conditions: HOP-92, 48 h, read-out: GI
[43] = Cytotoxicity against human SF539 cells assessed as growth inhibition at 10 uM after 48 hrs by SRB assay; conditions: SF-539, 48 h, read-out: GI
[44] = Cytotoxicity against human SW620 cells assessed as growth inhibition at 10 uM after 48 hrs by SRB assay; conditions: SW-620, 48 h, read-out: GI
[45] = test system: K562; test: Cytotoxicity against human K562 cells assessed as growth inhibition at 10 uM after 48 hrs by SRB assay; conditions: K562, 48 h, read-out: GI
[46] = Cytotoxicity against human MOLT4 cells assessed as growth inhibition at 10 uM after 48 hrs by SRB assay; conditions: MOLT-4, 48 h, read-out: GI
[47] = test system: NCI-H322M; test: Cytotoxicity against human NCI-H322M cells assessed as growth inhibition at 10 uM after 48 hrs by SRB assay; conditions: read-out: GI
[48] = Cytotoxicity against human Hs 578T cells assessed as growth inhibition at 10 uM after 48 hrs by SRB assay; conditions: read-out: GI
[49] = test system: 786-0; test: Cytotoxicity against human 786-0 cells assessed as growth inhibition at 10 uM after 48 hrs by SRB assay; conditions: 786-0, 48 h, read-out: GI
[50] = Cytotoxicity against human OVCAR5 cells assessed as growth inhibition at 10 uM after 48 hrs by SRB assay; conditions: OVCAR-5, 48 h, read-out: GI

COc1cc(NC(=O)CCSc2nc3ccccc3c(=O)n2-c2ccc(F)cc2)cc(OC)c1OC
inhibition of growth at 10 µM [1]: 14% | inhibition of growth at 10 µM [2]: 28% | inhibition of growth at 10 µM [3]: 22% | inhibition of growth at 10 µM [4]: 39% | inhibition of growth at 10 µM [5]: 32% | inhibition of growth at 10 µM [6]: 40% | inhibition of growth at 10 µM [7]: 40% | inhibition of growth at 10 µM [8]: 11% | inhibition of growth at 10 µM [9]: 47% | inhibition of growth at 10 µM [10]: 70% | inhibition of growth at 10 µM [11]: 18% | inhibition of growth at 10 µM [12]: 34% | inhibition of growth at 10 µM [13]: 12% | inhibition of growth at 10 µM [14]: 25% | inhibition of growth at 10 µM [15]: 15% | inhibition of growth at 10 µM [16]: 38% | inhibition of growth at 10 µM [17]: 18% | inhibition of growth at 10 µM [18]: 20% | inhibition of growth at 10 µM [19]: 22% | inhibition of growth at 10 µM [20]: 11% | inhibition of growth at 10 µM [21]: 40% | inhibition of growth at 10 µM [22]: 25% | inhibition of growth at 10 µM [23]: 23% | inhibition of growth at 10 µM [24]: 32% | inhibition of growth at 10 µM [25]: 61% | inhibition of growth at 10 µM [26]: 104% | inhibition of growth at 10 µM [27]: 21% | inhibition of growth at 10 µM [28]: 42% | inhibition of growth at 10 µM [29]: 117% | inhibition of growth at 10 µM [30]: 39% | inhibition of growth at 10 µM [31]: 28% | inhibition of growth at 10 µM [32]: 67% | inhibition of growth at 10 µM [33]: 40% | inhibition of growth at 10 µM [34]: 47% | inhibition of growth at 10 µM [35]: 68% | inhibition of growth at 10 µM [36]: 22% | inhibition of growth at 10 µM [37]: 30% | inhibition of growth at 10 µM [38]: 21% | inhibition of growth at 10 µM [39]: 17% | inhibition of growth at 10 µM [40]: 28% | inhibition of growth at 10 µM [41]: 21% | inhibition of growth at 10 µM [42]: 103% | inhibition of growth at 10 µM [43]: 34%

COc1cc(NC(=O)CCSc2nc3ccc(C)cc3c(=O)n2-c2ccccc2)cc(OC)c1OC
inhibition of growth at 10 µM [2]: 26% | inhibition of growth at 10 µM [4]: 24% | inhibition of growth at 10 µM [5]: 17% | inhibition of growth at 10 µM [44]: 13% | inhibition of growth at 10 µM [6]: 29% | inhibition of growth at 10 µM [7]: 13% | inhibition of growth at 10 µM [9]: 53% | inhibition of growth at 10 µM [12]: 34% | inhibition of growth at 10 µM [13]: 62% | inhibition of growth at 10 µM [45]: 10% | inhibition of growth at 10 µM [18]: 17% | inhibition of growth at 10 µM [19]: 45% | inhibition of growth at 10 µM [21]: 13% | inhibition of growth at 10 µM [46]: 43% | inhibition of growth at 10 µM [22]: 36% | inhibition of growth at 10 µM [23]: 47% | inhibition of growth at 10 µM [24]: 24% | inhibition of growth at 10 µM [25]: 16% | inhibition of growth at 10 µM [26]: 23% | inhibition of growth at 10 µM [28]: 20% | inhibition of growth at 10 µM [47]: 19% | inhibition of growth at 10 µM [29]: 50% | inhibition of growth at 10 µM [48]: 14% | inhibition of growth at 10 µM [30]: 19% | inhibition of growth at 10 µM [31]: 15% | inhibition of growth at 10 µM [32]: 35% | inhibition of growth at 10 µM [35]: 80% | inhibition of growth at 10 µM [36]: 29% | inhibition of growth at 10 µM [37]: 16% | inhibition of growth at 10 µM [49]: 21% | inhibition of growth at 10 µM [39]: 27% | inhibition of growth at 10 µM [40]: 12% | inhibition of growth at 10 µM [42]: 40% | inhibition of growth at 10 µM [43]: 17% | inhibition of growth at 10 µM [50]: 12%
